# Measurements: the supplement of paper PMC10307832
# What was measured:
# Experiment in all cases: relative viability (nuclei count vs DMSO), 5 days (fraction); higher = more cells survive
# Fedratinib + Tozasertib = compound: Cc1cnc(Nc2ccc(OCCN3CCCC3)cc2)nc1Nc1cccc(S(=O)(=O)NC(C)(C)C)c1 [Fedratinib] + Cc1cc(Nc2cc(N3CCN(C)CC3)nc(Sc3ccc(NC(=O)C4CC4)cc3)n2)n[nH]1 [Tozasertib] (partner 0.1 µM)
# Method in brief: (§1)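 Lung cancer cell lines were pin-tool dosed in 1536-well plates on the day after seeding, with either a lone drug or a fixed anchor-drug dose plus five library-drug doses (not always all listed) in √10 steps. Nuclei were counted on 4× images after 5 days. Relative viability is the ratio of treated-well to vehicle-well nuclei counts, with each value a median of duplicate plates.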
# Fedratinib + Pemetrexed = compound: Cc1cnc(Nc2ccc(OCCN3CCCC3)cc2)nc1Nc1cccc(S(=O)(=O)NC(C)(C)C)c1 [Fedratinib] + Nc1nc2[nH]cc(CCc3ccc(C(=O)N[C@@H](CCC(=O)O)C(=O)O)cc3)c2c(=O)[nH]1 [Pemetrexed] (partner 0.2 µM)
# Method in brief: as §1
# GW-2580 + Navitoclax = compound: COC1=CC=C(C=C1)COC2=C(C=C(C=C2)CC3=CN=C(N=C3N)N)OC [GW-2580] + CC1(C)CCC(c2ccc(Cl)cc2)=C(CN2CCN(c3ccc(C(=O)NS(=O)(=O)c4ccc(N[C@H](CCN5CCOCC5)CSc5ccccc5)c(S(=O)(=O)C(F)(F)F)c4)cc3)CC2)C1 [Navitoclax] (partner 0.5 µM)
# Method in brief: as §1
# GW-2580 + Dasatinib = compound: COC1=CC=C(C=C1)COC2=C(C=C(C=C2)CC3=CN=C(N=C3N)N)OC [GW-2580] + Cc1nc(Nc2ncc(C(=O)Nc3c(C)cccc3Cl)s2)cc(N2CCN(CCO)CC2)n1 [Dasatinib] (partner 0.075 µM)
# Method in brief: as §1
# Fedratinib + Phenformin = compound: Cc1cnc(Nc2ccc(OCCN3CCCC3)cc2)nc1Nc1cccc(S(=O)(=O)NC(C)(C)C)c1 [Fedratinib] + N=C(N)NC(=N)NCCc1ccccc1 [Phenformin] (partner 250 µM)
# Method in brief: as §1
Cell Line,relative viability (Fedratinib + Tozasertib; first compound 0.1 µM),relative viability (Fedratinib + Tozasertib; first compound 0.3162 µM),relative viability (Fedratinib + Tozasertib; first compound 1 µM),relative viability (Fedratinib + Pemetrexed; first compound 0.1 µM),relative viability (Fedratinib + Pemetrexed; first compound 0.3162 µM),relative viability (Fedratinib + Pemetrexed; first compound 1 µM),relative viability (GW-2580 + Navitoclax; first compound 0.08 µM),relative viability (GW-2580 + Navitoclax; first compound 0.8 µM),relative viability (GW-2580 + Navitoclax; first compound 2.53 µM),relative viability (GW-2580 + Navitoclax; first compound 8 µM),relative viability (GW-2580 + Dasatinib; first compound 0.08 µM),relative viability (GW-2580 + Dasatinib; first compound 0.8 µM),relative viability (GW-2580 + Dasatinib; first compound 2.53 µM),relative viability (GW-2580 + Dasatinib; first compound 8 µM),relative viability (Fedratinib + Phenformin; first compound 0.1 µM),relative viability (Fedratinib + Phenformin; first compound 0.3162 µM),relative viability (Fedratinib + Phenformin; first compound 1 µM)
HCC-78,0.402,0.36,0.392,0.963,0.838,0.881,0.879,1.07,0.631,0.801,0.322,0.467,0.286,0.298,0.698,0.703,0.572
HCC-366,0.0591,0.123,0.072,0.154,0.168,0.142,1.27,1.17,1.13,1.11,0.711,0.759,0.603,0.563,0.482,0.673,0.642
HCC-827,0.345,0.387,0.409,0.233,0.271,0.256,1.06,0.952,0.898,0.92,0.309,0.413,0.283,0.245,0.388,0.42,0.464
HOP-62,0.289,0.362,0.358,0.26,0.244,0.322,1.15,1.05,0.984,1.26,0.756,0.728,0.639,0.697,0.682,0.601,0.631
IA-LM,–,–,–,–,–,–,0.895,0.88,0.723,0.782,–,–,–,–,–,–,–
LC-2-ad,0.335,0.423,0.41,0.284,0.267,0.277,0.544,0.52,0.357,0.498,0.715,0.771,0.737,0.55,0.595,0.624,0.528
LCLC-97TM1,0.175,0.213,0.19,0.204,0.151,0.169,0.443,–,0.369,0.321,0.891,0.866,0.899,0.821,0.477,0.425,0.37
LCLC-103H,0.304,0.524,0.381,0.487,0.521,0.469,–,–,–,–,0.451,0.496,0.511,0.484,0.32,0.284,0.363
LK-2,0.186,0.193,0.161,0.171,0.207,0.233,0.983,1.09,0.616,1.03,0.288,0.281,0.282,0.295,0.293,0.452,0.201
NCI-H358,0.0945,0.0925,0.0987,0.175,0.155,0.156,–,–,–,–,0.173,0.199,0.159,0.115,0.304,0.323,0.252
NCI-H522,0.527,0.514,0.573,0.767,0.951,0.902,–,–,–,–,0.95,0.787,0.795,1.02,0.588,0.585,0.661
NCI-H650,0.312,0.764,0.69,0.866,0.887,0.835,–,–,–,–,0.468,0.538,0.396,0.424,0.431,0.441,0.426
NCI-H661,0.327,0.326,0.371,0.939,0.928,0.883,–,–,–,–,0.983,0.943,0.689,0.685,0.269,0.287,0.304
NCI-H727,0.493,0.823,0.656,–,–,–,0.454,0.538,0.402,0.384,0.414,0.409,0.44,0.299,0.76,0.477,0.352
NCI-H1299,–,–,–,–,–,–,1.09,1.06,1.06,0.97,–,–,–,–,–,–,–
NCI-H1563,–,–,–,0.737,0.624,0.824,–,–,–,–,0.473,0.534,0.458,0.447,0.658,0.693,0.637
NCI-H1623,0.414,0.486,0.397,–,–,–,–,–,–,–,0.46,0.645,0.447,0.583,0.474,0.59,0.551
NCI-H1648,0.409,0.567,0.422,0.598,0.675,0.328,–,–,–,–,–,–,–,–,–,–,–
NCI-H1703,–,–,–,–,–,–,1.11,1.15,1.1,1.06,–,–,–,–,–,–,–
NCI-H1792,–,–,–,0.784,0.67,0.597,0.534,0.816,0.26,0.668,1.48,0.82,–,1.01,–,0.77,0.338
NCI-H2342,0.51,0.713,0.695,0.801,0.765,0.775,–,–,–,–,0.329,0.327,0.297,0.332,0.674,0.537,0.634
SW 900,0.358,0.502,0.434,0.466,0.525,0.444,–,–,–,–,0.787,0.505,0.802,0.585,0.445,0.672,0.327
